Measurements as given in patent US20240417410A1, “TRICYCLIC COMPOUNDS FOR THE TREATMENT OF CANCER” (Hoffmann-La Roche Inc., priority 2023, published 2024).

Tests used:
WT HRAS-BRAF complex = experiment: WT HRAS-BRAF with CYPA interaction assay (TR-FRET); assay type: biochemical
Protocol: In this example, TR-FRET was used to measure the compound or compound-CYPA dependent disruption of the KRAS G12V-BRAF complex to assess inhibition efficacy. The IC50 ratio between WT KRAS/HRAS/NRAS and KRAS G12V mutant was calculated as selective index, which indicated tolerability and safety profile. Disruption of WT KRAS/HRAS/NRAS-BRAF complex by compounds was detected respectively. In assay buffer containing 25 mM HEPES (PH-7.4,4-(2-hydroxyethyl)-1-piperazineethanesulfonic acid, Thermo, 15630080), 0.002% Tween20, 0.1% BSA, 100 mM NaCl, 5 mM MgCl2, 10 μM GMPPNP (Guanosine 5′-[β,γ-imido]triphosphate trisodium salt hydrate, Sigma, G0635), tagless CYPA and GMPPNP loaded 6His-RAS proteins, and GST-BRAF^RBD were mixed in a well of a 384-well assay plate at final concentrations of 50 nM, 6.25 nM and 1 nM, respectively. Compound was present in plate wells as a 16-point 3-fold dilution series starting at a final concentration of 10 μM and incubated for 3 hours. A mixture of MAb Anti-6His-XL665 (Cisbio, 61HISXLB) and Mab anti-GST-TB cryptate (Cisbio, 61GSTTLB) was then added at a final concentration of 6.67 nM and 0.21 nM, respectively, and the plate was incubated for an additional 1.5 hours. TR-FRET signal was read on a PHERstar FSX microplate reader (Ex320 nm, Em 665/615 nm). Compounds that facilitate disruption of the RAS-BRAF complex were identified as those eliciting a decrease in the TR-FRET ratio relative to DMSO control wells.

[1] = tested on: NCI-H1373-luc intracranial tumors; experiment: Brain metastasis intracranial model, efficacy (bioluminescence); assay type: in vivo
Description: The purpose of this assay is to determine whether brain exposure of the compounds of current invention was sufficient to mediate regression of tumors in experimental Brain Metastases (BM) models.
NCI-H1373 cell line was purchased from the ATCC (CRL-5866). NCI-H1373-Luc cells were generated by WuXi AppTec. For generating NCI-H1373-Luc cell line, NCI-H1373 cells were transduced with GFP-Luc-puro lentivirus vector (HBLV-1014, HANBIO, carrying cDNA coding for firefly luciferase) and then selected with 1 μg/mL puromycin. All cells were authenticated by short tandem repeat fingerprinting, and periodically tested to be Mycoplasma free. H1373-luc cells were cultured in medium containing RPMI1640 (Thermo Fisher Scientific) plus 10% Fetal Bovine Serum (FBS, Thermo Fisher Scientific, 2.5 μg/mL puromycin and 1% Antibiotic-Antimycotic (Thermo Fisher Scientific), at 37° C. in an atmosphere of 5% CO2 in air. The medium was renewed every 2 to 3 days and tumor cells were routinely sub-cultured at a confluence of 80-90%. Cells growing in an exponential growth phase were harvested and counted for inoculation.
Murine studies were conducted at the WuXi AppTec and were performed in compliance with all applicable regulations and guidelines of the Institutional Animal Care and Use Committee (IACUC). Mice were maintained in a special pathogen-free environment and in individual ventilation cages, and food and water will be sterilized before use. 8 to 9 weeks female NU/NU nude mice (Charles River Lab.) were implanted intracarotid injection with 0.5×10^5 NCI-H1373-Luc cells in 100 μL serum-free media. When bioluminescence reached a mean of 1.28E+08 photons/second (range of 5.79E+07-2.685E+08 photons/second) at day 15 post inoculation, tumor-bearing mice were randomized into different groups with 4 mice in each group. The randomization date was denoted as treatment day 0. Afterwards, oral daily dosing of vehicle or Example 24 began and continued for 14 days. Baseline bioluminescent imaging (BLI) began 24 hours prior to initial dosing with vehicle or test articles, and additional imaging time points for all animals were measured twice a week by Xenogen machine (PerkinElmer IVIS Lumina II) between 0-14 days post grouping. […]
TGI (tumor growth inhibition) was calculated for each group using the formula: TGI (%)=[1−(Ti−T0)/(Vi−V0)]×100; Ti is the average tumor bioluminescence of a treatment group on a given day, T0 is the average tumor bioluminescence of the treatment group on the day of treatment start, Vi is the average tumor bioluminescence of the vehicle control group on the same day with Ti, and V0 is the average tumor bioluminescence of the vehicle group on the day of treatment start. […]

[2] = day 14, 30 mg/kg, PO, QD, NCI-H1373-luc intracranial

Question: Which results are given for CO[C@@H](C)c1ncc(N2CCN(C)CC2)cc1-c1c2c3cc(cc4c3n1CCC4)-c1csc(n1)C[C@H](NC(=O)[C@H]1[C@H](C)[C@@H]1C)C(=O)N1CCC[C@H](N1)C(=O)OCC(C)(C)C2 (atropisomer, axis not shown; (M)) [Example 24, (1r,2R,3S)-N-[(7S,13S)-(20M)-20-[2-[(1S)-1-methoxyethyl]-5-(4-methylpiperazin-1-yl)-3-pyridyl]-17,17-dimethyl-8,14-dioxo-15-oxa-4-thia-9,21,30,31-tetrazahexacyclo[23.3.1.1^2,5.1^9,13.0^19,27.0^21,26]hentriaconta-1 (28),2,5 (31), 19,25 (29),26-hexaen-7-yl]-2,3-dimethyl-cyclopropanecarboxamide]?
Answer: Selectivity Index (IC50 ratio) WT HRAS/KRAS G12V (WT HRAS-BRAF complex): 5.4; tolerability (overt toxicity, animal weight) ([1]; 30 mg/kg once daily for 14 days, NCI-H1373-luc intracranial model): no sign of overt toxicity or animal weight loss; ROI [1, 2]: 1.34 ± 0.75 ×10^7 photon/s; T/C [1, 2]: 0.52%; TGI [1, 2]: 104.68%
